Where two headings read alike, the source gives them in different places.
Tests used:
Assay type in all cases: in vivo
Phytophthora infestans = settings: tomatoes, preventive spray, evaluated 3 days after inoculation
Alternaria solani = experiment: Alternaria Test (Tomatoes)/Preventive; settings: preventive spray, 100 ppm a.i., evaluated 3 days after inoculation
Venturia inaequalis = experiment: Venturia Test (Apples)/Preventive; settings: preventive spray, evaluated 10 days after inoculation

## O=C(NCc1ncc(C(F)(F)F)cc1Cl)c1c(Cl)cccc1Cl [F143 fluopicolide, fluopicolide]
Phytophthora infestans; Table A1, 5 ppm a.i.
  Efficacy in % found: 32%
Alternaria solani
  Efficacy in % found: 0%

## propineb [F180 propineb]
Phytophthora infestans; Table A2, 10 ppm a.i.
  Efficacy in % found: 23%

## mancozeb [F174 mancozeb]
Phytophthora infestans; Table A2, 10 ppm a.i.
  Efficacy in % found: 15%
Venturia inaequalis; 20 ppm a.i.
  Efficacy in % found: 24%

## N#Cc1c(Cl)c(Cl)c(Cl)c(C#N)c1Cl [F155 chlorothalonil, chlorothalonil]
Venturia inaequalis; 10 ppm a.i.
  Efficacy in % found: 43%

— patent US10028509B2 (priority 2012, dated 2018)
